Data on 8 compounds can be found in publication PMC11492426, “Design, synthesis, and biological evaluation of novel quinoline-based EGFR/HER-2 dual-target inhibitors as potential anti-tumor agents” (RSC Advances, 2024).

The term viability denotes the share of living cells, or the viability signal relative to a control. A lower viability goes with a greater loss of cells. In general, IC50 refers to the concentration at which inhibition is half-maximal. A word on the melting point: it is the temperature of the solid-liquid transition. What is called GI50 is the concentration that inhibits growth by half. Low values mean greater sensitivity of the cells, high ones lower sensitivity of the cells.

Series [1] can be described thus: Cell viability assay (MTT) on MCF-10A normal cells. The format is cell-based. As to conditions: human, MCF-10A mammary gland epithelial normal cells, MCF-10A cells, four-day incubation. How it is done:
The impact of compounds 3a–h and 5a–d on cell viability was evaluated using the human mammary (MCF-10A) gland epithelium normal cell line. The MTT assay was used to evaluate the cell viability of 3a–h and 5a–d after a four-day incubation period on MCF-10A cells.[46] Refer to Appendix A for more details.
The effect of new compounds 3a–h and 5a–d on cell viability was evaluated using the MCF-10A (human mammary gland epithelium) normal cell line.
4.2. Biological evaluation
4.2.1 Cell Viability assay (MTT assay)
MTT assay was performed to investigate the effect of the synthesized compounds on mammary epithelial cells (MCF-10A). The cells were propagated in medium consisting of Ham's F-12 medium/ Dulbecco's modified Eagle's medium (DMEM) (1:1) supplemented with 10% foetal calf serum, 2 mM glutamine, insulin (10 μg/mL), hydrocortisone (500 ng/mL) and epidermal growth factor (20 ng/mL). Trypsin ethylenediamine tetra acetic acid (EDTA) was used to passage the cells after every 2-3 days. 96-well flat-bottomed cell culture plates were used to seed the cells at a density of 10^4 cells mL-1. The medium was aspirated from all the wells of culture plates after 24 h followed by the addition of synthesized compounds (in 200 μL medium to yield a final concentration of 0.1% (v/v) dimethyl sulfoxide) into individual wells of the plates. Four wells were designated to a single compound. The plates were allowed to incubate at 37°C for 96 h. Afterwards, the medium was aspirated and 3-[4,5-dimethylthiazol-2-yl]-2,5-diphenyltetrazolium bromide (MTT) (0.4 mg/mL) in medium was added to each well and subsequently incubated for 3 h. The medium was aspirated and 150 μL dimethyl sulfoxide (DMSO) was added to each well. The plates were vortexed followed by the measurement of absorbance at 540 nm on a microplate reader. The results were presented as inhibition (%) of proliferation in contrast to controls comprising 0.1% DMSO.

The subject of series [2] is A-549 lung cancer cell line. The experiment in a line: Antiproliferative assay, A-549. As to conditions: Homo sapiens, A549; A-549 lung cancer cells; read-out: Antiproliferative activity IC50 ± SEM, A-549. The format is cell-based.
Series [3] concerns HT-29 colon cancer cell line. The experiment in a line: Antiproliferative assay, HT-29. Format: cell-based. The settings on record: Homo sapiens; HT-29 colon cancer cells; read-out: Antiproliferative activity IC50 ± SEM, HT-29.
For series [4], the system named is four human cancer cell lines (A-549, MCF-7, Panc-1, HT-29). The experiment in a line: Antiproliferative assay, average over four cancer cell lines. As to conditions: average IC50 over the four cancer cell lines. Format: cell-based.
Series [5] concerns MCF-7 breast cancer cell line. Briefly: Antiproliferative assay, MCF-7. The format is cell-based. The settings on record: Homo sapiens, MCF7; MCF-7 breast cancer cells; read-out: Antiproliferative activity IC50 ± SEM, MCF-7.
The test system of series [6] is Panc-1 pancreatic cancer cell line. The experiment in a line: Antiproliferative assay, Panc-1. Format: cell-based. As to conditions: Homo sapiens; Panc-1 pancreatic cancer cells; read-out: Antiproliferative activity IC50 ± SEM, Panc-1.

In the case of `O=c1[nH]c2ccccc2c(O)c1/C=N/c1nc(-c2ccccc2)n[nH]1` [Compound 3a, (E) 4-hydroxy-3-(((3-phenyl-1H-1,2,4-triazol-5-yl)imino)methyl)quinolin-2(1H)-one], the melting point fell in the range of 310 to 312 °C. In series [1], the viability at 96 h, 50 µM is 89%. Besides, the concentration for half-maximal inhibition (IC50) in series [2] was 72 ± 7 nM. Besides, the concentration for half-maximal inhibition (IC50) in series [3] was determined as 74 ± 7 nM. For the same compound, halving of growth in series [4] (Homo sapiens) (GI50) required 72 nM. Further, the IC50 in series [5] came out at 69 ± 6 nM. For the same compound, the half-maximal inhibitory concentration (IC50) in series [6] is 74 ± 7 nM.

`Cc1ccc2[nH]c(=O)c(/C=N/c3nc(-c4ccccc4)n[nH]3)c(O)c2c1` [Compound 3b, (E) 4-hydroxy-6-methyl-3-(((3-phenyl-1H-1,2,4-triazol-5-yl)imino)methyl)quinolin-2(1H)-one] showed a melting point of 325 to 327 °C. In series [1], this compound had a viability at 96 h, 50 µM of 90%. Besides, the IC50 in series [2] was found to be 70 ± 6 nM. For the same compound, the IC50 in series [3] was determined as 71 ± 6 nM. In series [4] (Homo sapiens), this compound gave a GI50 of 70 nM. In addition, in series [5], the IC50 came to 67 ± 6 nM. Also, the 50% inhibitory concentration (IC50) in series [6] stood at 70 ± 6 nM.

The compound `Cn1c(=O)c(/C=N/c2nc(-c3ccncc3)n[nH]2)c(O)c2ccccc21` [Compound 3h, (E)-4-hydroxy-1-methyl-3-(((3-(pyridin-4-yl)-1H-1,2,4-triazol-5-yl)imino)methyl) quinolin-2(1H)-one] showed a melting point of 310 to 312 °C. Also, in series [1], the viability at 96 h, 50 µM was 85%. The half-maximal inhibitory concentration (IC50) in series [2] is 82 ± 8 nM. Besides, the IC50 in series [3] worked out at 82 ± 8 nM. In addition, the GI50 in series [4] (Homo sapiens) stood at 82 nM. Moreover, in series [5], the IC50 amounted to 78 ± 7 nM. Further, the IC50 in series [6] came out at 86 ± 8 nM.

On to `COc1ccc2[nH]c(=O)c(/C=N/c3nc(-c4ccccc4)n[nH]3)c(O)c2c1` [Compound 3c, (E)-4-hydroxy-6-methoxy-3-(((3-phenyl-1H-1,2,4-triazol-5-yl)imino)methyl) quinolin-2(1H)-one], for which the melting point was in the range of 330 to 332 °C. The compound also returned a viability at 96 h, 50 µM in series [1] of 87%. In series [2], the concentration for half-maximal inhibition (IC50) worked out at 50 ± 5 nM. Besides, in series [3], the concentration for half-maximal inhibition (IC50) turned out to be 52 ± 4 nM. This compound gave a GI50 in series [4] (Homo sapiens) of 51 nM. The IC50 in series [5] stood at 46 ± 4 nM. In addition, the IC50 in series [6] is 54 ± 5 nM.

`COc1ccc2[nH]c(=O)c(C=Nc3ccc(NS(=O)(=O)c4ncccn4)cc3)c(O)c2c1` [Compound 5c, N-(4-(((4-hydroxy-6-methoxy-2-oxo-1,2-dihydroquinolin-3-yl)methylene)amino)phenyl)pyrimidine-2-sulfonamide] displayed a viability at 96 h, 50 µM in series [1] of 86%. The concentration for half-maximal inhibition (IC50) in series [2] is 53 ± 5 nM; in series [3], 55 ± 5 nM; in series [5], 49 ± 4 nM; in series [6] it was 54 ± 5 nM. Moreover, in series [4] (Homo sapiens), the 50% growth inhibitory concentration (GI50) amounted to 53 nM.

In series [1], `COc1ccc2[nH]c(=O)c(/C=N/c3nc(-c4ccncc4)n[nH]3)c(O)c2c1` [Compound 3g, (E)-4-hydroxy-6-methoxy-3-(((3-(pyridin-4-yl)-1H-1,2,4-triazol-5-yl)imino)methyl) quinol-in-2(1H)-one] returned a viability at 96 h, 50 µM of 89%. Further, the IC50 in series [2] turned out to be 64 ± 6 nM; in series [3], 66 ± 6 nM; in series [5] it was 60 ± 6 nM; in series [6] it was 64 ± 6 nM. Moreover, the concentration for 50% growth inhibition (GI50) amounted to 82 nM in series [4] (Homo sapiens) and 64 nM in series [4].

Take `Cc1ccc2[nH]c(=O)c(/C=N/c3nc(-c4ccncc4)n[nH]3)c(O)c2c1` [Compound 3f, (E)-4-hydroxy-6-methyl-3-(((3-(pyridin-4-yl)-1H-1,2,4-triazol-5-yl)imino)methyl) quinolin-2(1H)-one]: the viability at 96 h, 50 µM in series [1] stood at 90%. Besides, the IC50 came to 62 ± 6 nM in series [2], 64 ± 6 nM in series [3], 59 ± 5 nM in series [5] and 65 ± 6 nM in series [6]. Halving of growth in series [4] (Homo sapiens) (GI50) required 63 nM.

`Cn1c(=O)c(/C=N/c2nc(-c3ccccc3)n[nH]2)c(O)c2ccccc21` [Compound 3d, (E)-4-hydroxy-1-methyl-3-(((3-phenyl-1H-1,2,4-triazol-5-yl)imino)methyl)quinolin-2(1H)-one] registered a melting point of 295 to 297 °C. Also, in series [1], the viability at 96 h, 50 µM came to 89%. For the same compound, in series [2], the IC50 is 76 ± 7 nM. Further, in series [3], the IC50 came to 77 ± 7 nM. The compound also yielded a GI50 in series [4] (Homo sapiens) of 76 nM. Moreover, in series [5], the IC50 was determined as 74 ± 7 nM. The IC50 in series [6] was found to be 76 ± 7 nM.
